Data: the supplement of paper PMC6045584
± gives the standard deviation of the averaged measurements.

Legend:
CARBOPLATIN [1] = compound: T1, O=C(O)C1(C(=O)O)CCC1.[NH2-].[NH2-].[Pt+2] [CARBOPLATIN]; experiment: surviving fraction relative to DMSO-only wells; higher = less growth inhibition; conditions: exposure time: 5 days
How it was run: (§1)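 Luminescence normalised to the median of DMSO-only wells defines surviving fraction, with viability read by CellTiter-Glo. Signal was recorded after 10 minutes at room temperature, once log-phase tumour cell lines seeded at 250–500 cells per well in 384-well plates had spent 24 hours settling and then five days under continuous exposure to inhibitors at 0.5, 1, 5, 10, 50, 100, 500 and 1000 nM.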

CAMPTOTHECIN [2] = compound: T2, CC[C@@]1(O)C(=O)OCc2c1cc1n(c2=O)Cc2cc3ccccc3nc2-1 [CAMPTOTHECIN]; experiment: as above; conditions: exposure time: 5 days
How it was run: as §1

YM155 [3] = compound: T3, COCC[n+]1c2c(n(Cc3cnccn3)c1C)C(=O)c1ccccc1C2=O [YM155]; experiment: as above; conditions: exposure time: 5 days
How it was run: as §1

[4] = compound: CC(=O)c1c(C)c2cnc(Nc3ccc(N4CCNCC4)cn3)nc2n(C2CCCC2)c1=O; experiment: as above; conditions: exposure time: 5 days
How it was run: as §1

CELECOXIB = compound: Cc1ccc(-c2cc(C(F)(F)F)nn2-c2ccc(S(N)(=O)=O)cc2)cc1 [CELECOXIB]; experiment: area under dose-response curve of surviving fraction (unscaled, Aref=0) (surviving fraction x log10(nM)); higher = more resistant; conditions: exposure time: 5 days; dose range 0.5-1000 nM
How it was run: (§2)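 Each tumour cell line was screened three times in 384-well plates, receiving eight inhibitor concentrations from 0.5 to 1000 nM for five days. CellTiter-Glo luminescence gave viability, normalised to DMSO-only wells. Using the drc R package, surviving fractions were fitted with 3-parameter logistic dose-response curves, and the unscaled activity area over log10 dose (Aref = 0) was taken as the area under the curve.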

GEFITINIB = compound: COc1cc2ncnc(Nc3ccc(F)c(Cl)c3)c2cc1OCCCN1CCOCC1 [GEFITINIB]; experiment: as above; conditions: exposure time: 5 days; dose range 0.5-1000 nM
How it was run: as §2

[5] = compound: CC(=O)NCC(=O)N1[C@@H]2CC[C@H]1c1ccc(Nc3ncc(C(F)(F)F)c(NC4CCC4)n3)cc12; experiment: as above; conditions: exposure time: 5 days; dose range 0.5-1000 nM
How it was run: as §2

OSI-906 = compound: C[C@]1(O)C[C@@H](c2nc(-c3ccc4ccc(-c5ccccc5)nc4c3)c3c(N)nccn32)C1 [OSI-906]; experiment: as above; conditions: exposure time: 5 days; dose range 0.5-1000 nM
How it was run: as §2

PACLITAXEL = compound: CC(=O)O[C@H]1C(=O)[C@@]2(C)[C@H]([C@H](OC(=O)c3ccccc3)[C@]3(O)C[C@H](OC(=O)[C@H](O)[C@@H](NC(=O)c4ccccc4)c4ccccc4)C(C)=C1C3(C)C)[C@]1(OC(C)=O)CO[C@@H]1C[C@@H]2O [PACLITAXEL]; experiment: as above; conditions: exposure time: 5 days; dose range 0.5-1000 nM
How it was run: as §2

CARBOPLATIN [6] = compound: T1, CARBOPLATIN; experiment: as above; conditions: exposure time: 5 days; dose range 0.5-1000 nM
How it was run: as §2

CAMPTOTHECIN [7] = compound: T2, CAMPTOTHECIN; experiment: as above; conditions: exposure time: 5 days; dose range 0.5-1000 nM
How it was run: as §2

YM155 [8] = compound: T3, YM155; experiment: as above; conditions: exposure time: 5 days; dose range 0.5-1000 nM
How it was run: as §2

[9] = compound: CC(=O)c1c(C)c2cnc(Nc3ccc(N4CCNCC4)cn3)nc2n(C2CCCC2)c1=O; experiment: as above; conditions: exposure time: 5 days; dose range 0.5-1000 nM
How it was run: as §2

## HCC1954 BREAST
CARBOPLATIN [1]; 0.5 nM
  surviving fraction: 1.36 ± 0.11
CARBOPLATIN [1]; 1 nM
  surviving fraction: 1.02 ± 0.072
CARBOPLATIN [1]; 5 nM
  surviving fraction: 1.4 ± 0.31
CARBOPLATIN [1]; 10 nM
  surviving fraction: 1.52 ± 0.31
CARBOPLATIN [1]; 50 nM
  surviving fraction: 1.05 ± 0.15
CARBOPLATIN [1]; 100 nM
  surviving fraction: 0.954 ± 0.013
CARBOPLATIN [1]; 500 nM
  surviving fraction: 1.07 ± 0.062
CARBOPLATIN [1]; 1000 nM
  surviving fraction: 0.836 ± 0.12
CAMPTOTHECIN [2]; 0.5 nM
  surviving fraction: 0.381 ± 0.037
CAMPTOTHECIN [2]; 1 nM
  surviving fraction: 0.362 ± 0.0088
CAMPTOTHECIN [2]; 5 nM
  surviving fraction: 0.484 ± 0.033
CAMPTOTHECIN [2]; 10 nM
  surviving fraction: 0.517 ± 0.037
CAMPTOTHECIN [2]; 50 nM
  surviving fraction: 0.245 ± 0.046
CAMPTOTHECIN [2]; 100 nM
  surviving fraction: 0.172 ± 0.011
CAMPTOTHECIN [2]; 500 nM
  surviving fraction: 0.0478 ± 0.0088
CAMPTOTHECIN [2]; 1000 nM
  surviving fraction: 0.0365 ± 0.0021
YM155 [3]; 0.5 nM
  surviving fraction: 1.08 ± 0.077
YM155 [3]; 1 nM
  surviving fraction: 0.922 ± 0.12
YM155 [3]; 5 nM
  surviving fraction: 0.987 ± 0.051
YM155 [3]; 10 nM
  surviving fraction: 0.467 ± 0.079
YM155 [3]; 50 nM
  surviving fraction: 0.0892 ± 0.02
YM155 [3]; 100 nM
  surviving fraction: 0.035 ± 0.0064
YM155 [3]; 500 nM
  surviving fraction: 0.0335 ± 0.00071
YM155 [3]; 1000 nM
  surviving fraction: 0.0333 ± 0.0053
[4]; 0.5 nM
  surviving fraction: 0.996 ± 0.22
[4]; 1 nM
  surviving fraction: 0.907 ± 0.29
[4]; 5 nM
  surviving fraction: 1.07 ± 0.21
[4]; 10 nM
  surviving fraction: 0.901 ± 0.4
[4]; 50 nM
  surviving fraction: 1.39 ± 0.17
[4]; 100 nM
  surviving fraction: 1.05 ± 0.056
[4]; 500 nM
  surviving fraction: 1.29 ± 0.054
[4]; 1000 nM
  surviving fraction: 1.36 ± 0.092
CELECOXIB
  area under dose-response curve: 3.51
GEFITINIB
  area under dose-response curve: 2.73
[5]
  area under dose-response curve: 3.09
OSI-906
  area under dose-response curve: 1.26
PACLITAXEL
  area under dose-response curve: 0.63
CARBOPLATIN [6]
  area under dose-response curve: 3.62
CAMPTOTHECIN [7]
  area under dose-response curve: 0.947
YM155 [8]
  area under dose-response curve: 1.4
[9]
  area under dose-response curve: 3.1
